The record followed here is BindingDB's records for doi:10.1021/jm701488f (2008).

This assay in a line: Antagonist activity at human CCR2 in PBMCs assessed as inhibition of chemotaxis.

Structures are written as SMILES.

With `Nc1ccc(C(F)(F)F)cc1C(=O)NCC(=O)N[C@H]1CCCC[C@H]1NC(=O)c1ccc(S(N)(=O)=O)cc1`, the IC50 is 63 nM.
To `O=C(CNC(=O)c1cccc(C(F)(F)F)c1)N[C@H]1CCCC[C@H]1NC(=O)c1ccc(I)cc1` belongs 160 nM.
Under `NS(=O)(=O)c1ccc(C(=O)N[C@@H]2CCCC[C@@H]2NC(=O)CNC(=O)c2cc(C(F)(F)F)ccc2NC(=O)C2CCCCC2)cc1` stands 0.5 nM; under `NS(=O)(=O)c1ccc(C(=O)N[C@@H]2CCCC[C@@H]2NC(=O)CNC(=O)c2cccc(C(F)(F)F)c2)cc1`, 130 nM; under `CSc1ccc(C(=O)N[C@@H]2CCCC[C@@H]2NC(=O)CNC(=O)c2cccc(C(F)(F)F)c2)cc1`, 1200 nM.

A word on the IC50: it is the concentration that inhibits the measured activity by half.
